Experimental data taken from patent US20170304530A1, “INFUSION PREPARATION” (priority 2010, published 2017).
Structures can show the parent of a compound that is named as a salt.

Assay: Remaining amount of each vitamin after 6 months storage at room temperature, measured by HPLC
Type: physicochemical
Details: vitamin in Example 3 infusion preparation before mixing, stored at room temperature for 6 months
Experimental: The infusion preparation (before mixing the first-chamber. infusion and the second-chamber infusion) was stored at room temperature for 6 months. Thereafter, the amount of each vitamin component contained in the first-chamber infusion or the second-chamber infusion was measured using HPLC. […] As is clear from the results, each of the vitamin components can be stably present in the infusion preparation even after 6 months storage.

Compound	Remaining rate after 6 months storage (%)
NC(=O)c1cccnc1 [Nicotinamide]	99.6%
O=C1O[C@H]([C@@H](O)CO)C(O)=C1O [Ascorbic acid]	99.9%
Nc1nc2ncc(CNc3ccc(C(=O)N[C@@H](CCC(=O)O)C(=O)O)cc3)nc2c(=O)[nH]1 [Folic acid]	100.0%
Cc1cc2nc3c(=O)[nH]c(=O)nc-3n(C[C@H](O)[C@H](O)[C@H](O)COP(=O)(O)O)c2cc1C [Riboflavin sodium phosphate]	100.1%
Cc1ncc(C[n+]2csc(CCO)c2C)c(N)n1 [Thiamine chloride hydrochloride]	98.7%
Cc1ncc(CO)c(CO)c1O.Cl [Pyridoxine hydrochloride]	99.3%
Cyanocobalamin	103.2%
C=C1CC[C@H](O)C/C1=C/C=C1\CCC[C@]2(C)[C@@H]([C@H](C)CCCC(C)C)CC[C@@H]12 [Cholecalciferol]	100.5%
CC(C)(CO)[C@@H](O)C(=O)NCCCO [Panthenol]	100.4%
CC1=C(C/C=C(\C)CCC[C@H](C)CCC[C@H](C)CCCC(C)C)C(=O)c2ccccc2C1=O [Phytonadione]	101.5%
CC(=O)Oc1c(C)c(C)c2c(c1C)CCC(C)(CCC[C@H](C)CCC[C@H](C)CCCC(C)C)O2 (stereo partly drawn) [Tocopherol acetate]	99.0%
O=C(O)CCCC[C@@H]1SC[C@@H]2NC(=O)N[C@@H]21 [Biotin]	97.8%
